Measured values: the supplement of paper PMC11061612

Legend:
[1] = system: EFM-19 (Breast Carcinoma); test: combination Emax (second highest fraction inhibited in the dose matrix, 72 h); higher = more inhibition; extreme values may be limits of the assay
Summary of the method: (§1)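 Cell lines grown in DMEM/F12 or RPMI with 10% FBS were plated in 1536-well plates and held 24 hours at 37°C, 5% CO2 before 72 hours of exposure to two-drug dose matrices, with DMSO typically at 0.2%. CellTiter-Glo 2.0 luminescence gave viability, which was converted to inhibition. Vehicle wells were set to 0 and blank wells to 1. Combination Emax is the second-highest inhibition in the matrix, and Bliss excess is the observed combination effect minus the expected EA + EB − EA·EB, where EA and EB are the single-agent effects.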

[2] = system: RF-48 (B-Cell Non-Hodgkin's Lymphoma); test: as above
Summary of the method: as §1

[3] = system: SW13 (Other Solid Carcinomas); test: as above
Summary of the method: as §1

[4] = system: KYSE-450 (Esophageal Squamous Cell Carcinoma); test: as above
Summary of the method: as §1

[5] = system: MIA-PaCa-2 (Pancreatic Carcinoma); test: as above
Summary of the method: as §1

NB69 (Neuroblastoma) = test: Bliss excess, mean over the matrix (fraction); higher = more synergy
Summary of the method: as §1

TGW (Neuroblastoma) = test: as above
Summary of the method: as §1

[6] = system: NCI-H358 (Lung Adenocarcinoma); test: as above
Summary of the method: as §1

EW-24 (Ewing's Sarcoma) = test: as above
Summary of the method: as §1

[7] = system: Caov-4 (Ovarian Carcinoma); test: as above
Summary of the method: as §1

YH-13 (Glioblastoma) = test: as above
Summary of the method: as §1

[8] = system: RF-48 (B-Cell Non-Hodgkin's Lymphoma); test: as above
Summary of the method: as §1

[9] = system: MLMA (Other Blood Carcinomas); test: as above
Summary of the method: as §1

[10] = system: SW13 (Other Solid Carcinomas); test: as above
Summary of the method: as §1

[11] = system: NCI-H727 (Other Solid Carcinomas); test: as above
Summary of the method: as §1

[12] = system: BT-549 (Breast Carcinoma); test: as above
Summary of the method: as §1

[13] = system: Hs-766T (Pancreatic Carcinoma); test: as above
Summary of the method: as §1

[14] = system: Ca9-22 (Head and Neck Carcinoma); test: as above
Summary of the method: as §1

[15] = system: AMO-1 (Plasma Cell Myeloma); test: as above
Summary of the method: as §1

ACHN (Kidney Carcinoma) = test: as above
Summary of the method: as §1
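For Bliss excess, mean over the matrix in this document: after 72 h of two-drug dosing.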

SMILES | combination Emax [1] | combination Emax [2] | combination Emax [3] | combination Emax [4] | combination Emax [5] | Bliss excess (NB69 (Neuroblastoma)) | Bliss excess (TGW (Neuroblastoma)) | Bliss excess [6] | Bliss excess (EW-24 (Ewing's Sarcoma)) | Bliss excess [7] | Bliss excess (YH-13 (Glioblastoma)) | Bliss excess [8] | Bliss excess [9] | Bliss excess [10] | Bliss excess [11] | Bliss excess [12] | Bliss excess [13] | Bliss excess [14] | Bliss excess [15] | Bliss excess (ACHN (Kidney Carcinoma))
CN(CCO)CC[C@H](CSc1ccccc1)Nc1ccc(S(=O)(=O)NC(=O)c2ccc(N3CCC([C@@H](O)c4ccccc4-c4ccc(Cl)cc4)CC3)cc2)cc1S(=O)(=O)C(F)(F)F [AZD4320] + Cc1cc2ncnn2cc1Nc1ncc2c(n1)n(C1CCOCC1)c(=O)n2C [AZD7648] (first compound max 1 µM, 7x7, partner max 10 µM) | 0.735 | 0.809 | 0.193 | 0.111 | 0.178 | -0.0649 | 0.0125 | -0.0394 | -0.0171 | -0.0277 | -0.0186 | -0.0205 | 0.0082 | -0.0371 | -0.0609 | -0.0213 | -0.0842 | -0.0039 | -0.0243 | -0.0186
CN(CCO)CC[C@H](CSc1ccccc1)Nc1ccc(S(=O)(=O)NC(=O)c2ccc(N3CCC([C@@H](O)c4ccccc4-c4ccc(Cl)cc4)CC3)cc2)cc1S(=O)(=O)C(F)(F)F [AZD4320] + Nc1ccn([C@@H]2O[C@H](CO)[C@@H](O)C2(F)F)c(=O)n1 [Gemcitabine] (first compound max 1 µM, 7x7, partner max 0.3 µM) | 0.702 | 0.955 | 0.927 | 0.202 | 0.771 | -0.0203 | 0.0257 | -0.0227 | 0.118 | -0.0556 | 0.0368 | -0.0365 | -0.0381 | -0.017 | 0.0335 | -0.0365 | -0.0777 | 0.0876 | -0.036 | 0.0947
N#Cc1cnc(Nc2cc(NC[C@H]3CNCCO3)c(C(F)(F)F)cn2)cn1 [SRA737] + C=CCn1c(=O)c2cnc(Nc3ccc(N4CCN(C)CC4)cc3)nc2n1-c1cccc(C(C)(C)O)n1 [AZD1775] (first compound max 10 µM, partner max 1 µM) | 0.413 | 0.467 | 0.218 | 0.906 | 0.911 | 0.163 | -0.0382 | -0.0155 | 0.0488 | 0.0532 | 0.0804 | -0.0171 | -0.0114 | 0.0091 | 0.0694 | 0.0819 | 0.0161 | 0.154 | 0.0986 | -0.0285
C[C@@H](c1ccc2nccn2c1)n1nnc2ncc(-c3cnn(C)c3)nc21 [Savolitinib] + Cc1c2c(nn1C)CSCc1cc(n(C)n1)CSc1cc(c3ccccc3c1)OCCCc1c(C(=O)O)n(C)c3c-2c(Cl)ccc13 [AZD5991] (first compound max 1 µM, 7x7, partner max 1 µM) | 0.223 | 0.275 | 0.735 | 0.115 | 0.204 | -0.0122 | -0.0467 | -0.0538 | -0.0237 | -0.011 | 0.023 | -0.029 | -0.0122 | -0.0541 | -0.0099 | -0.0229 | -0.0404 | -0.01 | 0.0251 | -0.0103
CN(CCO)CC[C@H](CSc1ccccc1)Nc1ccc(S(=O)(=O)NC(=O)c2ccc(N3CCC([C@@H](O)c4ccccc4-c4ccc(Cl)cc4)CC3)cc2)cc1S(=O)(=O)C(F)(F)F [AZD4320] + C[C@@H](Nc1cc(F)cc(F)c1)c1cc(C(=O)N(C)C)cc2c(=O)cc(N3CCOCC3)oc12 [AZD8186] (first compound max 1 µM, 7x7, partner max 3 µM) | 0.82 | 0.959 | 0.592 | 0.33 | 0.444 | -0.0381 | -0.027 | -0.0461 | -0.0214 | 0.0112 | 0.0513 | 0.0072 | 0.0859 | 0.0064 | 0.0309 | -0.0156 | 0.0113 | -0.0194 | 0.0318 | 0.0163
Cc1cc2ncnn2cc1Nc1ncc2c(n1)n(C1CCOCC1)c(=O)n2C [AZD7648] + CN(C)CCCOc1ccc(-c2ccc3ncc4c(c3c2)n(C2CCOCC2)c(=O)n4C)cn1 [AZD0156] (first compound max 10 µM, 7x7, partner max 1 µM) | 0.403 | 0.349 | 0.39 | 0.252 | 0.401 | -0.0382 | 0.0804 | 0.0054 | -0.0643 | 0.0511 | -0.0263 | -0.0144 | -0.0187 | 0.0107 | 0.0162 | 0.0101 | -0.0324 | 0.0625 | 0.0135 | 0.0104
CN(CCO)CC[C@H](CSc1ccccc1)Nc1ccc(S(=O)(=O)NC(=O)c2ccc(N3CCC([C@@H](O)c4ccccc4-c4ccc(Cl)cc4)CC3)cc2)cc1S(=O)(=O)C(F)(F)F [AZD4320] + Cn1cnc2c(F)c(Nc3ccc(Br)cc3Cl)c(C(=O)NOCCO)cc21 [Selumetinib] (first compound max 1 µM, 7x7, partner max 3 µM) | 0.753 | 0.951 | 0.544 | 0.386 | 0.61 | -0.0973 | 0.0147 | 0.0054 | -0.0352 | 0.0418 | -0.0219 | -0.0317 | 0.0436 | 0.0166 | 0.0963 | -0.0231 | -0.013 | 0.0415 | 0.0579 | 0.0429
Cc1cc2ncnn2cc1Nc1ncc2c(n1)n(C1CCOCC1)c(=O)n2C [AZD7648] + C=CCn1c(=O)c2cnc(Nc3ccc(N4CCN(C)CC4)cc3)nc2n1-c1cccc(C(C)(C)O)n1 [AZD1775] (first compound max 10 µM, partner max 1 µM) | 0.615 | 0.532 | 0.329 | 0.638 | 0.558 | -0.0504 | -0.0505 | -0.0156 | -0.0294 | 0.0222 | 0.0076 | 0.0239 | -0.0665 | 0.0004 | 0.024 | -0.0348 | -0.0274 | 0.022 | -0.0422 | -0.0178
CN(CCO)CC[C@H](CSc1ccccc1)Nc1ccc(S(=O)(=O)NC(=O)c2ccc(N3CCC([C@@H](O)c4ccccc4-c4ccc(Cl)cc4)CC3)cc2)cc1S(=O)(=O)C(F)(F)F [AZD4320] + C=CCn1c(=O)c2cnc(Nc3ccc(N4CCN(C)CC4)cc3)nc2n1-c1cccc(C(C)(C)O)n1 [AZD1775] (first compound max 1 µM, partner max 1 µM) | 0.716 | 0.885 | 0.167 | 0.64 | 0.6 | 0.0032 | -0.008 | -0.0765 | 0.119 | -0.0248 | -0.0163 | 0.0896 | 0.0379 | -0.02 | -0.0587 | 0.0109 | -0.0431 | 0.0335 | 0.0119 | 0.0342
N#Cc1cnc(Nc2cc(NC[C@H]3CNCCO3)c(C(F)(F)F)cn2)cn1 [SRA737] + O=c1[nH]cc(F)c(=O)[nH]1 [5-Fluorouracil] (first compound max 10 µM, 7x7, partner max 20 µM) | 0.355 | 0.566 | 0.0967 | 0.379 | 0.252 | -0.0068 | -0.0389 | -0.0743 | 0.0101 | -0.0494 | 0.0119 | -0.0095 | -0.0455 | -0.026 | 0.001 | 0.0358 | 0.0415 | 0.0135 | -0.0004 | -0.0547
CN(CCO)CC[C@H](CSc1ccccc1)Nc1ccc(S(=O)(=O)NC(=O)c2ccc(N3CCC([C@@H](O)c4ccccc4-c4ccc(Cl)cc4)CC3)cc2)cc1S(=O)(=O)C(F)(F)F [AZD4320] + CC(=O)O[C@H]1C(=O)[C@@]2(C)[C@H]([C@H](OC(=O)c3ccccc3)[C@]3(O)C[C@H](OC(=O)[C@H](O)[C@@H](NC(=O)c4ccccc4)c4ccccc4)C(C)=C1C3(C)C)[C@]1(OC(C)=O)CO[C@@H]1C[C@@H]2O [Paclitaxel] (first compound max 1 µM, 7x7, partner max 3 µM) | 1 | 0.989 | 1 | 0.875 | 0.898 | 0.0148 | -0.0472 | 0.0117 | 0.17 | 0.0863 | 0.0619 | -0.0029 | 0.0254 |  | 0.101 | 0.0578 | -0.0002 | 0.037 | 0.0173 | -0.0319
CN(CCO)CC[C@H](CSc1ccccc1)Nc1ccc(S(=O)(=O)NC(=O)c2ccc(N3CCC([C@@H](O)c4ccccc4-c4ccc(Cl)cc4)CC3)cc2)cc1S(=O)(=O)C(F)(F)F [AZD4320] + C[C@@H]1COCCN1C2=NC(=NC(=C2)C3(CC3)[S@](=N)(=O)C)C4=C5C=CNC5=NC=C4 [AZD6738] (first compound max 1 µM, 7x7, partner max 10 µM) | 0.716 | 0.917 | 0.405 | 0.547 | 0.632 | -0.0533 | -0.0629 | -0.0195 | 0.0267 | -0.027 | -0.0035 | 0.0017 | 0.0229 | -0.0208 | -0.0735 | -0.0239 | -0.108 | 0.0001 |  | -0.0099
